In US20030104507A1, “Method for detection of ATP” (priority 2001, published 2003):

Experiments:
LucPpy = biological target: T1, LucPpy (Photinus pyralis, UniProt P08659); assay: Stability of reagent composition with LucPpy and detergent (RT, pH 7.0); type: biochemical; conditions: LucPpy
T1 construct: purchased Promega E170A
Excerpt: (§1) The detergents used for inhibition of endogenous ATPase activity in a sample also affect activity of luciferase. […] It is ultimately the extended stability of a reagent composition, comprising an ATPase inhibitor and a luciferase enzyme, which provides a composition useful for measuring ATP, in a sample or samples, over an extended period of time.
(§2) In this experiment, the stability of a reagent composition comprising wild type LucPpy was compared to the stability of a reagent composition comprising LucPpe2m146 at about 23° C. (room temperature). The various reagent compositions had varying detergent concentrations.
(§3) Two solutions were created as listed below. One contained the luciferase, luciferin, MgSO4, and buffer (reagent composition). The other solution contained media plus ATP (media solution).
(§4) 50 μg/ml enzyme (LucPpy is Promega catalog #E170A)
(§5) Detergent (at various concentrations, see table below)
(§6) For each reagent composition, all ingredients except the luciferase enzyme were assembled; the enzyme was then added immediately before the first luminescence reading was taken. Immediately after addition of enzyme to each reagent composition and for various timepoints thereafter, 100 μl aliquots of the reagent composition were added to wells of a 96-well microtitre luminometer plate in triplicate. To these were added 100 μl Media Solution containing the ATP. Luminescence was then immediately read on a Dynex MLX microtitreplate luminometer, 0.5 second reads per well. The average relative light unit values as well as the reaction half lives are listed below in Table I and the percent of original luminescence remaining at each timepoint is listed in Table J below. The timepoint at the top of the column indicates the time at which the first rlu measurement for the samples in that column was read. […] Times listed in Table I are the same for Table J. The values for sulfobetaine and for CTAB were generated on different days, they are presented with the control values generated in the same experiment.

LucPpe2m146 = assay: Stability of reagent composition with LucPpe2m146 and detergent (RT, pH 7.0); type: biochemical, Photuris pennsylvanica
Excerpt: as §1, §2, §3, §4, §5, §6

In the case of C[C@H](CCC(=O)[O-])[C@H]1CC[C@H]2[C@@H]3CC[C@@H]4C[C@H](O)CC[C@]4(C)[C@H]3C[C@H](O)[C@]12C.[Na+] [Deoxycholate, sodium deoxycholate], the “Average Relative Light Units” value (LucPpy; 0.02%, 0.75 min (head r32)) is reported as 3199.250 rlu, the “Percent of Luminescence Remaining” value (LucPpy; 0.02%, 0.75 min (times of Table I r32)) is reported as 100.00% and the “Average Relative Light Units” value (LucPpy; 0.02%, 38 min (head r32)) is reported as 2844.010 rlu. For the same molecule, the “Percent of Luminescence Remaining” value (LucPpy; 0.02%, 38 min (times of Table I r32)) was 88.90%, the “Average Relative Light Units” value (LucPpy; 0.02%, 70 min (head r32)) was 2626.260 rlu and the “Percent of Luminescence Remaining” value (LucPpy; 0.02%, 70 min (times of Table I r32)) was 82.09%. The “Average Relative Light Units” value (LucPpy; 0.02%, 94 min (head r32)) was 2496.570 rlu, the “Percent of Luminescence Remaining” value (LucPpy; 0.02%, 94 min (times of Table I r32)) was 78.04% and the “Average Relative Light Units” value (LucPpy; 0.02%, 122 min (head r32)) was 2314.910 rlu. For the same molecule, the “Percent of Luminescence Remaining” value (LucPpy; 0.02%, 122 min (times of Table I r32)) was 72.3%, the “Average Relative Light Units” value (LucPpy; 0.1%, 0.75 min (head r18)) was 19.771 rlu and the “Percent of Luminescence Remaining” value (LucPpy; 0.1%, 0.75 min (times of Table I r18)) was 100.00%. For the same molecule, the “Average Relative Light Units” value (LucPpy; 0.1%, 10 min (head r18)) was 0.180 rlu, the “Percent of Luminescence Remaining” value (LucPpy; 0.1%, 10 min (times of Table I r18)) was 0.91% and the “Average Relative Light Units” value (LucPpy; 0.1%, 36 min (head r18)) was 0.026 rlu. The “Percent of Luminescence Remaining” value (LucPpy; 0.1%, 36 min (times of Table I r18)) was 0.13%, the “Average Relative Light Units” value (LucPpy; 0.5%, 0.75 min (head r5)) was 4.801 rlu and the “Percent of Luminescence Remaining” value (LucPpy; 0.5%, 0.75 min (times of Table I r5)) was 100.00%. For the same molecule, the “Average Relative Light Units” value (LucPpy; 0.5%, 21 min (head r5)) was 0.012 rlu, the “Percent of Luminescence Remaining” value (LucPpy; 0.5%, 21 min (times of Table I r5)) was 0.25% and the “Average Relative Light Units” value (LucPpy; 0.5%, 39 min (head r5)) was 0.007 rlu. The “Percent of Luminescence Remaining” value (LucPpy; 0.5%, 39 min (times of Table I r5)) was 0.15%, the “Average Relative Light Units” value (LucPpe2m146; LucPpe2m146, 0.02%, 1.0 min (head r67)) was 24307.30 rlu and the “Percent of Luminescence Remaining” value (LucPpe2m146; LucPpe2m146, 0.02%, 1.0 min (times of Table I r67)) was 100.00%. The “Average Relative Light Units” value (LucPpe2m146; LucPpe2m146, 0.02%, 34 min (head r67)) was 24639.00 rlu, the “Percent of Luminescence Remaining” value (LucPpe2m146; LucPpe2m146, 0.02%, 34 min (times of Table I r67)) was 101.36% and the “Average Relative Light Units” value (LucPpe2m146; LucPpe2m146, 0.02%, 65 min (head r67)) was 24717.97 rlu. The “Percent of Luminescence Remaining” value (LucPpe2m146; LucPpe2m146, 0.02%, 65 min (times of Table I r67)) was 101.69%, the “Average Relative Light Units” value (LucPpe2m146; LucPpe2m146, 0.02%, 115 min (head r67)) was 23158.37 rlu and the “Percent of Luminescence Remaining” value (LucPpe2m146; LucPpe2m146, 0.02%, 115 min (times of Table I r67)) was 95.27%. The “Average Relative Light Units” value (LucPpe2m146; LucPpe2m146, 0.02%, 175 min (head r67)) was 24655.43 rlu, the “Percent of Luminescence Remaining” value (LucPpe2m146; LucPpe2m146, 0.02%, 175 min (times of Table I r67)) was 101.43% and the “Average Relative Light Units” value (LucPpe2m146; LucPpe2m146, 0.02%, 238 min (head r67)) was 24320.6 rlu. For the same molecule, the “Percent of Luminescence Remaining” value (LucPpe2m146; LucPpe2m146, 0.02%, 238 min (times of Table I r67)) was 100.05%, the “Average Relative Light Units” value (LucPpe2m146; LucPpe2m146, 0.02%, 286 min (head r67)) was 24303.9 rlu and the “Percent of Luminescence Remaining” value (LucPpe2m146; LucPpe2m146, 0.02%, 286 min (times of Table I r67)) was 99.99%. For the same molecule, the “Average Relative Light Units” value (LucPpe2m146; LucPpe2m146, 0.1%, 1.0 min (head r54)) was 5150.43 rlu, the “Percent of Luminescence Remaining” value (LucPpe2m146; LucPpe2m146, 0.1%, 1.0 min (times of Table I r54)) was 100.00% and the “Average Relative Light Units” value (LucPpe2m146; LucPpe2m146, 0.1%, 34 min (head r54)) was 5031.12 rlu. For the same molecule, the “Percent of Luminescence Remaining” value (LucPpe2m146; LucPpe2m146, 0.1%, 34 min (times of Table I r54)) was 97.68%, the “Average Relative Light Units” value (LucPpe2m146; LucPpe2m146, 0.1%, 65 min (head r54)) was 6855.67 rlu and the “Percent of Luminescence Remaining” value (LucPpe2m146; LucPpe2m146, 0.1%, 65 min (times of Table I r54)) was 133.11%. The “Average Relative Light Units” value (LucPpe2m146; LucPpe2m146, 0.1%, 115 min (head r54)) was 6340.45 rlu, the “Percent of Luminescence Remaining” value (LucPpe2m146; LucPpe2m146, 0.1%, 115 min (times of Table I r54)) was 123.11% and the “Average Relative Light Units” value (LucPpe2m146; LucPpe2m146, 0.1%, 175 min (head r54)) was 7347.09 rlu. For the same molecule, the “Percent of Luminescence Remaining” value (LucPpe2m146; LucPpe2m146, 0.1%, 175 min (times of Table I r54)) was 142.65%, the “Average Relative Light Units” value (LucPpe2m146; LucPpe2m146, 0.1%, 238 min (head r54)) was 6801.23 rlu and the “Percent of Luminescence Remaining” value (LucPpe2m146; LucPpe2m146, 0.1%, 238 min (times of Table I r54)) was 132.05%. For the same molecule, the “Average Relative Light Units” value (LucPpe2m146; LucPpe2m146, 0.1%, 286 min (head r54)) was 7472.54 rlu, the “Percent of Luminescence Remaining” value (LucPpe2m146; LucPpe2m146, 0.1%, 286 min (times of Table I r54)) was 145.09% and the “Average Relative Light Units” value (LucPpe2m146; LucPpe2m146, 0.5%, 15 min (head r41)) was 45.977 rlu. For the same molecule, the “Percent of Luminescence Remaining” value (LucPpe2m146; LucPpe2m146, 0.5%, 15 min (times of Table I r41)) was 100.00%, the “Average Relative Light Units” value (LucPpe2m146; LucPpe2m146, 0.5%, 72 min (head r41)) was 229.874 rlu and the “Percent of Luminescence Remaining” value (LucPpe2m146; LucPpe2m146, 0.5%, 72 min (times of Table I r41)) was 499.98%. The “Average Relative Light Units” value (LucPpe2m146; LucPpe2m146, 0.5%, 124 min (head r41)) was 2059.397 rlu, the “Percent of Luminescence Remaining” value (LucPpe2m146; LucPpe2m146, 0.5%, 124 min (times of Table I r41)) was 4479.22% and the “Average Relative Light Units” value (LucPpe2m146; LucPpe2m146, 0.5%, 190 min (head r41)) was 1414.397 rlu. The “Percent of Luminescence Remaining” value (LucPpe2m146; LucPpe2m146, 0.5%, 190 min (times of Table I r41)) was 3076.34%, the “Average Relative Light Units” value (LucPpe2m146; LucPpe2m146, 0.5%, 251 min (head r41)) was 1342.963 rlu and the “Percent of Luminescence Remaining” value (LucPpe2m146; LucPpe2m146, 0.5%, 251 min (times of Table I r41)) was 2920.97%.
